How the values were obtained:
Epstein-Barr virus = details: A. Kondo et al., Biosci. Biotech. Biochem. (1993); cited from earlier work
fungi = details: A. M. Janssen et al., Planta Medica 1985; cited from earlier work
[1] = S. Mitsui et al., Chem. Pharm. Bull. (1976); cited from earlier work
tumor = details: H. Itokawa et al., Planta Medica (1987); cited from earlier work
xanthin oxidase = details: T. Noro et al., Chem. Pharm. Bull. (1988); cited from earlier work
oral cavity = experiment: Expert panel evaluation in foods, beverages and consumer healthcare products; type: in vivo, human; details: for character of mayonnaise base / character of sour cream / character of vegetable dip: 500 ppm compound; for character of toothpaste base: peppermint flavored toothpaste base; for character of sour cream: regular fat sour cream; for character of vegetable dip: vegetable soup mix with regular fat sour cream
Procedure: Mouthwash base was prepared by mixing 0.08 parts mouthwash flavor (commercially available from Givaudan Roure Flavors Ltd.), 0.5 parts Pluronic F-127, 0.5 parts polysorbate 20, 0.35 parts sodium lauryl sulfate, 5 parts glycerine, 0.015 parts sodium saccharin and 93.555 parts water. […] Toothpaste base (Opaque 13/02-5F) was flavored with peppermint flavor (Givaudan Roure peppermint flavor 10570-34) at 0.5% by weight. […] Mayonnaise base was prepared by mixing 59.8 parts whole egg, 24 parts vinegar (white, 5% acidity), 1.3 parts mustard, 2 parts sugar, 1 part salt and 219 parts vegetable oil. […] An onion dip was prepared by mixing a commercial package of onion soup mix (Lipton) with plain, regular fat sour cream and 1000 ppm of compound 9 as described and prepared according to example 9. […] 2.5 parts Maltrin M-10 (commercially available) was mixed with 0.05 parts pizza flavor (SNE Pizza Flavor 810841). 50 parts potato chips ([…]) were placed on a paper plate then microwaved for 30-60 seconds until surface oil glistened. […] A chewing gum was prepared according to methods known to those skilled in the art.

SMILES: C=CC(OC(C)=O)c1ccc(OC(C)=O)cc1 (racemic) [Compound 1, (rac)-acetic acid 1-(4-acetoxy-phenyl)-allyl ester]
- inhibition of tumor promoter-induced Epstein-Barr virus activation (Epstein-Barr virus): potent inhibitor
- anti-fungal activity (fungi): anti-fungal activity
- anti-ulcer activity [1]: anti-ulcer activity
- anti-tumor activity (tumor): anti-tumor activity
- inhibition of xanthin oxidase (xanthin oxidase): inhibit xanthin oxidase
- character of mayonnaise base (oral cavity): warm/hot, spicy and pungent character
- sensation imparted by mouthwash base (oral cavity; 100 ppm compound): warm/hot, spicy and pungent sensation
- character of toothpaste base (oral cavity; 100 ppm compound): warm/hot, spicy and pungent character
- character of sour cream (oral cavity): warm/hot, spicy and pungent character without a lingering effect
- character of vegetable dip (oral cavity): warm/hot, peppery and pungent character without any lingering effect

SMILES: C=CC(OC(C)=O)c1ccc(OC(C)=O)c(OC)c1 (racemic) [Compound 2, (rac)-acetic acid 1-(4-acetoxy-3-methoxphenyl)-allyl ester]
- anti-fungal activity (fungi): anti-fungal activity
- anti-tumor activity (tumor): anti-tumor activity
- inhibition of xanthin oxidase (xanthin oxidase): inhibit xanthin oxidase
- character of orange flavored chewing gum (oral cavity; chewing gum, 1 g compound in the batch): warm/hot, peppery and pungent character, again without any lingering effect

SMILES: C=CC(OC(=O)CC)c1ccc(OC(=O)CC)c(OC)c1 (racemic) [Compound 3, (rac)-propionic acid 1-(4-propionoxy-3-methoxyphenyl)-allyl ester]
- sensation imparted by mouthwash base (oral cavity; 100 ppm compound): warm/hot, spicy and pungent sensation

SMILES: C=CC(OC(=O)CC)c1ccc(OC(=O)CC)cc1 (racemic) [Compound 4, (rac)-propionic acid 1-(4-propionoxy-phenyl)-allyl ester]
- sensation imparted by mouthwash base (oral cavity; 100 ppm compound): warm/hot, spicy and pungent sensation

SMILES: C=CC(OC(=O)C(C)C)c1ccc(OC(=O)C(C)C)cc1 (racemic) [Compound 5, (rac)-isobutyric acid 1-(4-isobutyryloxy-phenyl)-allyl ester]
- sensation imparted by mouthwash base (oral cavity; 100 ppm compound): warm/hot, spicy and pungent sensation

SMILES: CCC(OC(C)=O)c1ccc(OC(C)=O)cc1 (racemic) [Compound 6, (rac-)-acetic acid 1-(4-acetoxy-phenyl)-propyl ester]
- character of mayonnaise base (oral cavity): warm/hot, spicy and pungent character
- sensation imparted by mouthwash base (oral cavity; 100 ppm compound): warm/hot, spicy and pungent sensation
- character of toothpaste base (oral cavity; 100 ppm compound): warm/hot, spicy and pungent character
- character of pizza snack (potato chips) (oral cavity; potato chips with pizza flavor, dusted with 1000 ppm compound): warm/hot, peppery and pungent character
- character of sour cream (oral cavity): warm/hot, spicy and pungent character without a lingering effect
- character of vegetable dip (oral cavity): warm/hot, peppery and pungent character without any lingering effect

SMILES: CCC(OC(C)=O)c1ccc(OC(C)=O)c(OC)c1 (racemic) [Compound 7, (rac)-acetic acid 1-(4-acetoxy-3-methoxy-phenyl)-propyl ester]
- flavor of cordial base (oral cavity; 50 Proof cordial base with cinnamon flavor 0.2% by weight, 100 ppm compound): enhanced warm /hot, pungent flavor
- character of mayonnaise base (oral cavity): warm/hot, spicy and pungent character
- sensation imparted by mouthwash base (oral cavity; 100 ppm compound): warm/hot, spicy and pungent sensation
- character of toothpaste base (oral cavity; 100 ppm compound): warm/hot, spicy and pungent character
- character of sour cream (oral cavity): warm/hot, spicy and pungent character without a lingering effect
- character of vegetable dip (oral cavity): warm/hot, peppery and pungent character without any lingering effect

SMILES: C=CCC(OC(C)=O)c1ccc(OC(C)=O)cc1 (racemic) [Compound 9, (rac)-acetic acid 1-(4-acetoxyphenyl)-3-butenyl ester]
- character of mayonnaise base (oral cavity): warm/hot, spicy and pungent character
- sensation imparted by mouthwash base (oral cavity; 100 ppm compound): warm/hot, spicy and pungent sensation
- character of onion dip (oral cavity; onion soup mix with regular fat sour cream, 1000 ppm compound): warm/hot, peppery and pungent character without a lingering effect
- character of toothpaste base (oral cavity; 100 ppm compound): warm/hot, spicy and pungent character
- character of sour cream (oral cavity): warm/hot, spicy and pungent character without a lingering effect
- character of vegetable dip (oral cavity): warm/hot, peppery and pungent character without any lingering effect

Reference: patent publication US6476252B1, “Flavorant compositions” (Givaudan Roure (International) SA, priority 1997, dated 2002)
